B1: glial-derived neurotrophic factor (protein, UniProt P39905 78-211, looked up)
Glial cell line-derived …: SPDKQMAVLPRRERNRQAAAANPENSRGKGRRGQRGKNRGCVLTAIHLNVTDLGLGYETKEELIFRYCSGSCDAAETTYDKILKNLSRNRRLVSDKVGQACCRPIAFDDDLSFLDDNLVYHILRKHSAKRCGCI
notes: glial-derived neurotrophic factor (10 ng/ml) added to the Basic induction medium
B2: transforming growth factor β3 (protein, UniProt P10600 301-412, looked up)
Transforming growth factor …: ALDTNYCFRNLEENCCVRPLYIDFRQDLGWKWVHEPKGYYANFCSGPCPYLRSADTTHSTVLGLYNTLNPEASASPCCVPQDLEPLTILYYVGRTPKVEQLSNMVVKSCKCS
notes: transforming growth factor β3 (2 ng/ml) added to the Basic induction medium

Assays:
human MSCs [1] = assay: Western blot analysis of TH protein expression after differentiation protocols; format: cell-based; details: result in words
Experimental: MSC isolation, culture, and characterization: Fresh bone marrow aspirates harvested from the iliac crests of adult donors (age 19-76) were diluted with Hanks' balanced salt solution. Mononuclear cells were isolated by centrifugation in Unisep-Maxi tubes (Novamed, Jerusalem, Israel) by density gradient. The cells were then plated in Dulbecco's Modified Eagle's Medium (DMEM) supplemented with 15% fetal bovine serum (FBS), 2 mM glutamine, 100 μg/ml streptomycin, 100 units/ml penicillin, 12.5 units/ml nystatin (Biological Industries, Beit HaEmek, Israel) in polystyrene plastic 75-cm^2 tissue-culture flasks. After 24 hours, nonadherent cells were removed. The medium was changed every 3-4 days. Adherent cells were cultured to 70%-90% confluence and reseeded at a density of 5,000-10,000 cells/cm^2. The cells were maintained at 37° C. in a humidified 5% CO2 incubator. The MSCs were characterized for their cell-surface phenotype and their mesenchymal differentiation capacity, as previously described (Blondheim er al., 2006, Stem Cells Dev 15:141-164).
(§1) Induction of differentiation: The differentiation protocol was composed of 2 steps. In step 1, cells were transferred to serum-free medium (DMEM) supplemented with 2 mM glutamine, 100 μg/ml streptomycin, 100 units/ml penicillin, 12.5 units/ml nystatin (Biological Industries), N2 supplement (Invitrogen, New Haven, Conn.) and 20 ng/ml fibroblast growth factor 2 and epidermal growth factor (both from R&D Systems, Minneapolis, Minn.) for 48-72 hours. In step 2, the medium was changed to Basic induction medium containing Neurobasal, B27 (both from Invitrogen), in addition to 1 mM dibutyryl cyclic AMP (dbcAMP), 3-isobutyl-1-methyl-xanthine (IBMX), and 200 μM ascorbic acid (all from Sigma, St Louis, Mo.). The following factors were added to the Basic induction medium in different combinations: brain-derived neurotrophic factor (BDNF; 50 ng/ml), glial-derived neurotrophic factor (GDNF;10 ng/ml), neurturin (100 ng/ml), neurotrophin 3 (NT3; 50 ng/ml), and fibroblast growth factor 8 (FGF8; 100 ng/ml (all from Cytolab, Rehovot, Israel); transforming growth factor β3 (TGFβ3; 2 ng/ml), sonic hedgehog (Shh; 500 ng/ml, both from R&D); estrogen (0.1 μM, Sigma); and all-trans-retinoic acid (RA; 0.1 μM, Sigma).
Western blot: Total protein was extracted by suspending the harvested cells in lysis buffer containing 10 mM Tris base (U.S. Biochemical Corporation, Cleveland, Ohio), 5 mM EDTA (Merck, Whitehouse Station, N.J.), 140 mM sodium chloride (NaCl; BioLab, Jerusalem, Israel), 10 mM sodium fluoride (NaF; Sigma), 0.5% NP 40 (U.S. Biochemical Corporation), and 1 μM phenylmethylsulfonyl fluoride (PMSF; Sigma). Following incubation on ice for 30 minutes, the mixture was centrifuged and the supernatants were collected. Protein content was determined by the BCA protein assay kit (Pierce, Rockford, Ill.). Twenty-five micrograms of protein from each sample were subjected to sodium dodecyl-sulfate (SDS)-polyacrylamide gel electrophoresis (PAGE) (12.5% acrylamide), followed by electrophoretic transfer to nitrocellulose membrane (Schleicher & Schuell, Dassel, Germany). Membranes were probed by mouse anti-TH (1:10,000, Sigma) and mouse anti β-actin (1:10,000, Chemicon, Billerica, Mass.) and then by goat anti-mouse horseradish peroxidase conjugated antibody (1:10,000) (Jackson, West Grove, Pa.) and rabbit anti-emerin (1:5,000, Santa Cruz Biotechnology, Santa Cruz, Calif.), followed by goat anti-rabbit horseradish peroxidase conjugated secondary antibody (1:10,000, Sigma). Adequate controls included HeLa cells (ATCC, Manassas, Va.) as negative control and neuroblastoma M17 cells (BE (2)-M17, ATCC) as positive control. Proteins of interest were detected using the enhanced Super Signal® chemiluminescent detection kit (Pierce).

human MSCs [2] = assay: Cell death in culture on supplementation of antioxidants; format: cell-based; details: antioxidant supplementation of differentiation medium; data not shown
Experimental: as §1

| Molecule | TH protein expression level normalized to actin (human MSCs [1]) | cell death in the culture (human MSCs [2]) |
| --- | --- | --- |
| estrogen [+estrogen, reference compound] | directly affected the TH protein expression level |  |
| CC(=O)N[C@@H](CS)C(=O)O [NAC, N-acetylcysteine, reference compound] | did not facilitate upregulation | higher levels of cell death |
| COc1ccc(O)c(C(C)(C)C)c1 [BHA, butylated hydroxyanisole, reference compound] | did not facilitate upregulation | higher levels of cell death |
| sonic hedgehog [+SHH] | directly affected the TH protein expression level |  |
| B1 | directly affected the TH protein expression level |  |
| B2 | directly affected the TH protein expression level |  |

From patent US20090257987A1, “Method of generating dopamine-secreting cells” (Ramot At Tel Aviv University Ltd., priority 2008, published 2009)
